Measured values published in US8481732B2 (Incyte Corporation, priority 2009, dated 2013).

Target: T1, histamine H4 receptor (Homo sapiens, UniProt Q9H3N8)
T1 construct: expressed in transfected cells; host or cells: HEK293SFM cells (membrane preparation)
Experiment: H4 Membrane Binding Assay (3H-Histamine displacement)
Settings: membranes of recombinant HEK293SFM cells, 10 nM 3H-Histamine, 1.5 hr at room temperature
Method: Recombinant HEK293SFM cells expressing human H1, H2, H3, H4 or mouse H4 were harvested (Packard Filtermate Harvester) in ice-cold Tris-HCl, (50 mM, pH 7.5, Sigma) with protease inhibitors (Roche) and homogenized with a Polytron homogenizer. The homogenate was centrifuged for 5 minutes at 1000 g to remove nuclei and unbroken cells. The supernatant was centrifuged at 50000 g for 30 minutes, and the resulting pellet was re-suspended in ice-cold Tris-HCl (50 mM, pH 7.5). […] Nonspecific binding was determined by inclusion of 1000× unlabeled ligands. The bound radioactivity was separated by filtration through polyethyleneimine-treated GF/B filters (Perkin Elmer). The filters were washed eight times with ice-cold Tris-HCl (50 mM, pH 7.5), and radioactivity retained on the filters was measured by liquid scintillation counting. The binding data were evaluated with Prism.

T1 sequence (Q9H3N8 whole entry): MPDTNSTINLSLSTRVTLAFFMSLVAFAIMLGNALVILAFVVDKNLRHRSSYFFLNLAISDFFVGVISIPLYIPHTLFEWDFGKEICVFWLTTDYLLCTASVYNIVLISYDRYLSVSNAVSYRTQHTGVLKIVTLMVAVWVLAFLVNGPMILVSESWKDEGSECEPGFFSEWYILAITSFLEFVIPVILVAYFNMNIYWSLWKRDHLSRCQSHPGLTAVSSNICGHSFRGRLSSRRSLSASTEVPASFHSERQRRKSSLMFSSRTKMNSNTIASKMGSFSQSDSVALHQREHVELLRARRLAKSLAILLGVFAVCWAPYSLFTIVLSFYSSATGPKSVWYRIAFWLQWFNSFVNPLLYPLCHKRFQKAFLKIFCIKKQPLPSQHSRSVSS

Row | Structure (SMILES) | IC50 [nM]
1 | CN1CCN(c2nc(N)nc3cc(C(=O)N[C@@H](Cc4ccc(-c5cccs5)cc4)C(=O)N(C)C)ccc23)CC1 [Example 148, 2-Amino-N-{(1S)-2-(dimethylamino)-2-oxo-1-[4-(2-thienyl)benzyl]ethyl}-4-(4-methylpiperazin-1-yl)quinazoline-7-carboxamide] | 18
2 | CN1CCN(c2cc(-c3ccc4c(c3)CN(C(=O)NC3CCC(F)(F)CC3)CC4)nc(N)n2)CC1 [Example 63, 7-[2-Amino-6-(4-methylpiperazin-1-yl)pyrimidin-4-yl]-N-(4,4-difluorocyclohexyl)-3,4-dihydroisoquinoline-2(1H)-carboxamide] | 37
3 | CC(NC(=O)c1ccc2c(N3CCN(C)CC3)nc(N)nc2c1)c1ccc(Br)cc1 (centres unmarked) [Example 31, 2-Amino-N-[1-(4-bromophenyl)ethyl]-4-(4-methylpiperazin-1-yl)quinazoline-7-carboxamide] | 355
4 | CC(C)Oc1ccc(C[C@H](NC(=O)c2ccc3c(N4CCN(C)CC4)nc(N)nc3c2)C(=O)N(C)C)cc1 [Example 136, (S)-2-amino-N-(1-(dimethylamino)-3-(4-isopropoxyphenyl)-1-oxopropan-2-yl)-4-(4-methylpiperazin-1-yl)quinazoline-7-carboxamide] | 59
5 | CN1CCN(c2cc(-c3ccc4c(c3)CN(C(=O)N3CCC(c5ccccc5)CC3)CC4)nc(N)n2)CC1 [Example 103, 4-(4-Methylpiperazin-1-yl)-6-{2-[(4-phenylpiperidin-1-yl)carbonyl]-1,2,3,4-tetrahydroisoquinolin-7-yl}pyrimidin-2-amine] | 84
6 | CO[C@H]1Cc2ccccc2[C@H]1NC(=O)N1CCc2ccc(-c3cc(N4CCN(C)CC4)nc(N)n3)cc2C1 [Example 58, 7-[2-Amino-6-(4-methylpiperazin-1-yl)pyrimidin-4-yl]-N-[(1R,2S)-2-methoxy-2,3-dihydro-1H-inden-1-yl]-3,4-dihydroisoquinoline-2(1H)-carboxamide] | 165
7 | COC(=O)N1CCC(OC(=O)N2CCc3ccc(-c4cc(N5CCN(C)CC5)nc(N)n4)cc3C2)CC1 [Example 115, 1-(Methoxycarbonyl)piperidin-4-yl 7-[2-amino-6-(4-methylpiperazin-1-yl)pyrimidin-4-yl]-3,4-dihydroisoquinoline-2(1H)-carboxylate] | 33
8 | CN1CCN(c2cc(-c3ccc4c(c3)CN(C(=O)Cc3ccc(Cl)nc3)CC4)nc(N)n2)CC1 [Example 108, 4-{2-[(6-Chloropyridin-3-yl)acetyl]-1,2,3,4-tetrahydroisoquinolin-7-yl}-6-(4-methylpiperazin-1-yl)pyrimidin-2-amine] | 33
9 | CN1CCN(c2nc(N)nc3cc(C(=O)N[C@@H](Cc4ccc(-c5cccc(C#N)c5)cc4)C(=O)N(C)C)ccc23)CC1 [Example 154, 2-Amino-N-[(1S)-1-[(3′-cyanobiphenyl-4-yl)methyl]-2-(dimethylamino)-2-oxoethyl]-4-(4-methylpiperazin-1-yl)quinazoline-7-carboxamide] | 14
10 | CO[C@H]1CC[C@H](NC(=O)N2CCc3ccc(-c4cc(N5CCN(C)CC5)nc(N)n4)cc3C2)CC1 [Example 56, 7-[2-Amino-6-(4-methylpiperazin-1-yl)pyrimidin-4-yl]-N-(trans-4-methoxycyclohexyl)-3,4-dihydroisoquinoline-2(1H)-carboxamide] | 210
11 | CN1CCN(c2nc(N)nc3cc(C(=O)N4CCc5c(cccc5OCc5cccc(C#N)c5)C4)ccc23)CC1 [Example 207, 3((2-(2-Amino-4-(4-methylpiperazin-1-yl)quinazoline-7-carbonyl)-1,2,3,4-tetrahydroisoquinolin-5-yloxy)methyl)benzonitrile] | 36
12 | CN1CCN(c2nc(N)nc3cc(C(=O)N[C@@H](Cc4ccc(-c5cccc(Cl)c5Cl)cc4)C(=O)N(C)C)ccc23)CC1 [Example 162, 2-Amino-N-[(1S)-1-[(2′,3′-dichlorobiphenyl-4-yl)methyl]-2-(dimethylamino)-2-oxoethyl]-4-(4-methylpiperazin-1-yl)quinazoline-7-carboxamide] | 10
13 | C[C@H](NC(=O)c1ccc2c(N3CCN(C)CC3)nc(N)nc2c1)c1ccc2ccccc2c1 [Example 22, (S)-2-Amino-4-(4-methylpiperazin-1-yl)-N-(1-(naphthalen-2-yl)ethyl)quinazoline-7-carboxamide] | 128
14 | CC(C)COC(=O)N1CCc2ccc(-c3cc(N4CCN(C)CC4)nc(N)n3)cc2C1 [Example 10, Isobutyl 7-[2-amino-6-(4-methylpiperazin-1-yl)pyrimidin-4-yl]-3,4-dihydroisoquinoline-2(1H)-carboxylate] | 53.4
15 | CN1CCN(c2cc(-c3ccc4c(c3)CN(c3ccc(-c5ccc(C#N)cc5)cn3)CC4)nc(N)n2)CC1 [Example 18, 4-{6-[7-[2-Amino-6-(4-methylpiperazin-1-yl)pyrimidin-4-yl]-3,4-dihydroisoquinolin-2(1H)-yl]pyridin-3-yl}benzonitrile] | 34
16 | CN1CCN(c2cc(-c3ccc4c(c3)CN(C(=O)Nc3ccccc3F)CC4)nc(N)n2)CC1 [Example 99, 7-[2-Amino-6-(4-methylpiperazin-1-yl)pyrimidin-4-yl]-N-(2-fluorophenyl)-3,4-dihydroisoquinoline-2(1H)-carboxamide] | 31
17 | CC(C)OC(=O)N1CCc2ccc(-c3cc(N4CCN(C)CC4)nc(N)n3)cc2C1 [Example 11, Isopropyl 7-[2-amino-6-(4-methylpiperazin-1-yl)pyrimidin-4-yl]-3,4-dihydroisoquinoline-2(1H)-carboxylate] | 43
18 | CC(CC(=O)N1CCc2ccc(-c3cc(N4CCN(C)CC4)nc(N)n3)cc2C1)C(F)(F)F (centres unmarked) [Example 62, 4-(4-Methylpiperazin-1-yl)-6-[2-(4,4,4-trifluoro-3-methylbutanoyl)-1,2,3,4-tetrahydroisoquinolin-7-yl]pyrimidin-2-amine] | 24
19 | CC(C)[C@H](C)NC(=O)N1CCc2ccc(-c3cc(N4CCN(C)CC4)nc(N)n3)cc2C1 [Example 97, 7-[2-Amino-6-(4-methylpiperazin-1-yl)pyrimidin-4-yl]-N-[(1S)-1,2-dimethylpropyl]-3,4-dihydroisoquinoline-2(1H)-carboxamide] | 73
20 | CN1CCN(c2cc(-c3ccc4c(c3)CN(C(=O)Cc3cncc(C#N)c3)CC4)nc(N)n2)CC1 [Example 125, 5-{2-[7-[2-Amino-6-(4-methylpiperazin-1-yl)pyrimidin-4-yl]-3,4-dihydroisoquinolin-2(1H)-yl]-2-oxoethyl}nicotinonitrile] | 92
21 | CN1CCN(c2nc(N)nc3cc(C(=O)N4CCc5c(cccc5OCc5ccc(C#N)cc5)C4)ccc23)CC1 [Example 210, 4-((2-(2-Amino-4-(4-methylpiperazin-1-yl)quinazoline-7-carbonyl)-1,2,3,4-tetrahydroisoquinolin-5-yloxy)methyl)benzonitrile] | 41
22 | CN1CCN(c2nc(N)nc3cc(C(=O)N[C@@H](Cc4ccc(-c5ccc(C#N)cn5)cc4)C(=O)N(C)C)ccc23)CC1 [Example 155, 2-Amino-N-[(1S)-1-[4-(5-cyanopyridin-2-yl)benzyl]-2-(dimethylamino)-2-oxoethyl]-4-(4-methylpiperazin-1-yl)quinazoline-7-carboxamide] | 55
23 | CC(C(=O)N1CCc2ccc(-c3cc(N4CCN(C)CC4)nc(N)n3)cc2C1)C1CCCCC1 (centres unmarked) [Example 102, 4-[2-(2-Cyclohexylpropanoyl)-1,2,3,4-tetrahydroisoquinolin-7-yl]-6-(4-methylpiperazin-1-yl)pyrimidin-2-amine] | 83
24 | CN1CCN(c2cc(-c3ccc4c(c3)CN(C(=O)CC3(C#N)CCC3)CC4)nc(N)n2)CC1 [Example 120, 1-{2-[7-[2-Amino-6-(4-methylpiperazin-1-yl)pyrimidin-4-yl]-3,4-dihydroisoquinolin-2(1)-yl]-2-oxoethyl}cyclobutanecarbonitrile] | 34
25 | CN1CCN(c2cc(-c3ccc4c(c3)CN(C(=O)OC3CCN(S(=O)(=O)C5CCCC5)CC3)CC4)nc(N)n2)CC1 [Example 89, 1-(Cyclopentylsulfonyl)piperidin-4-yl 7-[2-amino-6-(4-methylpiperazin-1-yl)pyrimidin-4-yl]-3,4-dihydroisoquinoline-2(1H)-carboxylate] | 77
26 | COC(=O)[C@H](Cc1ccc(-c2ccccc2)cc1)NC(=O)c1ccc2c(N3CCN(C)CC3)nc(N)nc2c1 [Example 138, Methyl (2S)-2-({[2-amino-4-(4-methylpiperazin-1-yl)quinazolin-7-yl]carbonyl}amino)-3-biphenyl-4-ylpropanoate] | 23
27 | CN1CCN(c2cc(-c3ccc4c(c3)CN(C(=O)CC(C#N)c3ccccc3)CC4)nc(N)n2)CC1 (centres unmarked) [Example 124, 4-[7-[2-Amino-6-(4-methylpiperazin-1-yl)pyrimidin-4-yl]-3,4-dihydroisoquinolin-2(1H)-yl]-4-oxo-2-phenylbutanenitrile] | 36
28 | CN1CCN(c2cc(-c3ccc4c(c3)CN(C(=O)CC3(C#N)CCCC3)CC4)nc(N)n2)CC1 [Example 122, 1-{2-[7-[2-Amino-6-(4-methylpiperazin-1-yl)pyrimidin-4-yl]-3,4-dihydroisoquinolin-2(1H)-yl]-2-oxoethyl}cyclopentanecarbonitrile] | 22
29 | COCC1(NC(=O)N2CCc3ccc(-c4cc(N5CCN(C)CC5)nc(N)n4)cc3C2)CCCC1 [Example 94, 7-[2-Amino-6-(4-methylpiperazin-1-yl)pyrimidin-4-yl]-N-[1-(methoxymethyl)cyclopentyl]-3,4-dihydroisoquinoline-2(1H)-carboxamide] | 149
